From patent US12077503B2, “Substituted cyclic amides and their use as herbicides” (FMC CORPORATION, priority 2015, dated 2024)

Key:
Assay in all cases: Test C preemergence
Format in all cases: in vivo
[1] = tested on: Galium (catchweed bedstraw, Galium aparine); conditions: for Plant response rating, Galium: scale 0 to 100, 0 no effect, 100 complete control
In short: (§1)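 Scores of 0 to 100 reflect visual comparison with control plants, where 0 means no effect and 100 complete control, made 13 to 15 d after treatment. Application was preemergence to seeds in loam-sand soil or postemergence to plants 2 to 18 cm tall in peat-based mix, using a surfactant-containing solvent formulation.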

[2] = tested on: barnyardgrass (Echinochloa crus-galli); conditions: for Plant response rating, Barnyardgrass: scale 0 to 100, 0 no effect, 100 complete control
In short: as §1

[3] = tested on: blackgrass (Alopecurus myosuroides); conditions: for Plant response rating, Blackgrass: scale 0 to 100, 0 no effect, 100 complete control
In short: as §1

corn (Zea mays) = conditions: for Plant response rating, Corn: scale 0 to 100, 0 no effect, 100 complete control
In short: as §1

[4] = tested on: crabgrass, large (large crabgrass, Digitaria sanguinalis); conditions: for Plant response rating, Crabgrass, Large: scale 0 to 100, 0 no effect, 100 complete control
In short: as §1

[5] = tested on: foxtail, giant (giant foxtail, Setaria faberii); conditions: for Plant response rating, Foxtail, Giant: scale 0 to 100, 0 no effect, 100 complete control
In short: as §1

[6] = tested on: johnsongrass (Sorghum halepense); conditions: for Plant response rating, Johnsongrass: scale 0 to 100, 0 no effect, 100 complete control
In short: as §1

[7] = tested on: lambsquarters (Chenopodium album); conditions: for Plant response rating, Lambsquarters: scale 0 to 100, 0 no effect, 100 complete control
In short: as §1

[8] = tested on: morningglory (Ipomoea coccinea); conditions: for Plant response rating, Morningglory: scale 0 to 100, 0 no effect, 100 complete control
In short: as §1

[9] = tested on: nutsedge, yellow (yellow nutsedge, Cyperus esculentus); conditions: for Plant response rating, Nutsedge, Yellow: scale 0 to 100, 0 no effect, 100 complete control
In short: as §1

[10] = tested on: oilseed rape (Brassica napus); conditions: for Plant response rating, Oilseed Rape: scale 0 to 100, 0 no effect, 100 complete control
In short: as §1

[11] = tested on: pigweed (Amaranthus retroflexus); conditions: for Plant response rating, Pigweed: scale 0 to 100, 0 no effect, 100 complete control
In short: as §1

[12] = tested on: ragweed (common ragweed, Ambrosia elatior); conditions: for Plant response rating, Ragweed: scale 0 to 100, 0 no effect, 100 complete control
In short: as §1

[13] = tested on: ryegrass, Italian (Italian ryegrass, Lolium multiflorum); conditions: for Plant response rating, Ryegrass, Italian: scale 0 to 100, 0 no effect, 100 complete control
In short: as §1

soybean (Glycine max) = conditions: for Plant response rating, Soybean: scale 0 to 100, 0 no effect, 100 complete control
In short: as §1

[14] = tested on: velvetleaf (Abutilon theophrasti); conditions: for Plant response rating, Velvetleaf: scale 0 to 100, 0 no effect, 100 complete control
In short: as §1

[15] = tested on: waterhemp (common waterhemp, Amaranthus rudis); conditions: for Plant response rating, Waterhemp: scale 0 to 100, 0 no effect, 100 complete control
In short: as §1

[16] = tested on: wheat (winter wheat, Triticum aestivum); conditions: for Plant response rating, Wheat: scale 0 to 100, 0 no effect, 100 complete control
In short: as §1

[17] = 31 g ai/ha, 0 is no effect, 100 is complete control

## Cc1ccc(C2CN(C)C(=O)C2C(=O)Nc2ccccc2C(F)(F)F)cc1 (stereo not drawn) [Compound 665]
[1]; [17]
  Plant response rating (scale of 0 to 100), Galium: 90
[1]; 62 g ai/ha
  Plant response rating, Galium: 90
[1]; 125 g ai/ha
  Plant response rating, Galium: 90
[1]; 250 g ai/ha
  Plant response rating, Galium: 90
[2]; [17]
  Plant response rating (scale of 0 to 100), Barnyardgrass: 85
[2]; 62 g ai/ha
  Plant response rating, Barnyardgrass: 95
[2]; 125 g ai/ha
  Plant response rating, Barnyardgrass: 98
[2]; 250 g ai/ha
  Plant response rating, Barnyardgrass: 100
[3]; [17]
  Plant response rating (scale of 0 to 100), Blackgrass: 60
[3]; 62 g ai/ha
  Plant response rating, Blackgrass: 60
[3]; 125 g ai/ha
  Plant response rating, Blackgrass: 90
[3]; 250 g ai/ha
  Plant response rating, Blackgrass: 90
Corn (Zea mays); [17]
  Plant response rating (scale of 0 to 100), Corn: 0
Corn (Zea mays); 62 g ai/ha
  Plant response rating, Corn: 10
Corn (Zea mays); 125 g ai/ha
  Plant response rating, Corn: 75
Corn (Zea mays); 250 g ai/ha
  Plant response rating, Corn: 70
[4]; [17]
  Plant response rating (scale of 0 to 100), Crabgrass, Large: 98
[4]; 62 g ai/ha
  Plant response rating, Crabgrass, Large: 100
[4]; 125 g ai/ha
  Plant response rating, Crabgrass, Large: 100
[4]; 250 g ai/ha
  Plant response rating, Crabgrass, Large: 100
[5]; [17]
  Plant response rating (scale of 0 to 100), Foxtail, Giant: 90
[5]; 62 g ai/ha
  Plant response rating, Foxtail, Giant: 95
[5]; 125 g ai/ha
  Plant response rating, Foxtail, Giant: 98
[5]; 250 g ai/ha
  Plant response rating, Foxtail, Giant: 98
[6]; [17]
  Plant response rating (scale of 0 to 100), Johnsongrass: 10
[6]; 62 g ai/ha
  Plant response rating, Johnsongrass: 25
[6]; 125 g ai/ha
  Plant response rating, Johnsongrass: 25
[6]; 250 g ai/ha
  Plant response rating, Johnsongrass: 45
[7]; [17]
  Plant response rating (scale of 0 to 100), Lambsquarters: 10
[7]; 62 g ai/ha
  Plant response rating, Lambsquarters: 45
[7]; 125 g ai/ha
  Plant response rating, Lambsquarters: 70
[7]; 250 g ai/ha
  Plant response rating, Lambsquarters: 85
[8]; [17]
  Plant response rating (scale of 0 to 100), Morningglory: 0
[8]; 62 g ai/ha
  Plant response rating, Morningglory: 15
[8]; 125 g ai/ha
  Plant response rating, Morningglory: 20
[8]; 250 g ai/ha
  Plant response rating, Morningglory: 10
[9]; [17]
  Plant response rating (scale of 0 to 100), Nutsedge, Yellow: 0
[9]; 62 g ai/ha
  Plant response rating, Nutsedge, Yellow: 0
[9]; 125 g ai/ha
  Plant response rating, Nutsedge, Yellow: 0
[9]; 250 g ai/ha
  Plant response rating, Nutsedge, Yellow: 0
[10]; [17]
  Plant response rating (scale of 0 to 100), Oilseed Rape: 30
[10]; 62 g ai/ha
  Plant response rating, Oilseed Rape: 60
[10]; 125 g ai/ha
  Plant response rating, Oilseed Rape: 80
[10]; 250 g ai/ha
  Plant response rating, Oilseed Rape: 85
[11]; [17]
  Plant response rating (scale of 0 to 100), Pigweed: 0
[11]; 62 g ai/ha
  Plant response rating, Pigweed: 60
[11]; 125 g ai/ha
  Plant response rating, Pigweed: 50
[11]; 250 g ai/ha
  Plant response rating, Pigweed: 50
[12]; [17]
  Plant response rating (scale of 0 to 100), Ragweed: 40
[12]; 62 g ai/ha
  Plant response rating, Ragweed: 55
[12]; 125 g ai/ha
  Plant response rating, Ragweed: 70
[12]; 250 g ai/ha
  Plant response rating, Ragweed: 75
[13]; [17]
  Plant response rating (scale of 0 to 100), Ryegrass, Italian: 30
[13]; 62 g ai/ha
  Plant response rating, Ryegrass, Italian: 60
[13]; 125 g ai/ha
  Plant response rating, Ryegrass, Italian: 65
[13]; 250 g ai/ha
  Plant response rating, Ryegrass, Italian: 60
Soybean (Glycine max); [17]
  Plant response rating (scale of 0 to 100), Soybean: 10
Soybean (Glycine max); 62 g ai/ha
  Plant response rating, Soybean: 10
Soybean (Glycine max); 125 g ai/ha
  Plant response rating, Soybean: 0
Soybean (Glycine max); 250 g ai/ha
  Plant response rating, Soybean: 10
[14]; [17]
  Plant response rating (scale of 0 to 100), Velvetleaf: 20
[14]; 62 g ai/ha
  Plant response rating, Velvetleaf: 35
[14]; 125 g ai/ha
  Plant response rating, Velvetleaf: 60
[14]; 250 g ai/ha
  Plant response rating, Velvetleaf: 70
[15]; [17]
  Plant response rating (scale of 0 to 100), Waterhemp: 50
[15]; 62 g ai/ha
  Plant response rating, Waterhemp: 40
[15]; 125 g ai/ha
  Plant response rating, Waterhemp: 65
[15]; 250 g ai/ha
  Plant response rating, Waterhemp: 85
[16]; [17]
  Plant response rating (scale of 0 to 100), Wheat: 15
[16]; 62 g ai/ha
  Plant response rating, Wheat: 50
[16]; 125 g ai/ha
  Plant response rating, Wheat: 50
[16]; 250 g ai/ha
  Plant response rating, Wheat: 90
